Data: PubChem BioAssay (NCI)
Several values for one entry are separate records, joined by “and”; a condition that tells them apart may be missing. Identical values can stand only once.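 Dose response: 5 concentrations. Exposure: 48 h. Format: 96-well plates. Endpoint: linear interpolation; highest concentration if not reached. The concentration for 50% growth inhibition is given as GI50. Definition used: TGI = concentration required for complete inhibition of growth.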

How the values were obtained:
Test in all cases: NCI anticancer screen, dose series, 48 h
U251 CNS = test system: U251 CNS
LOX IMVI melanoma = test system: LOX IMVI melanoma
ACHN renal = test system: ACHN renal
IGROV1 ovarian = test system: IGROV1 ovarian
RPMI-8226 leukemia = test system: RPMI-8226 leukemia
OVCAR-5 ovarian = test system: OVCAR-5 ovarian
CCRF-CEM leukemia = test system: CCRF-CEM leukemia
HT29 colon = test system: HT29 colon
PC-3 prostate = test system: PC-3 prostate
MCF7 breast = test system: MCF7 breast

| SMILES | TGI (U251 CNS) | TGI (LOX IMVI melanoma) [µM] | TGI (ACHN renal) | TGI (IGROV1 ovarian) | TGI (RPMI-8226 leukemia) | TGI (OVCAR-5 ovarian) | TGI (CCRF-CEM leukemia) | TGI (HT29 colon) | GI50 (PC-3 prostate) | TGI (PC-3 prostate) | GI50 (U251 CNS) | GI50 (ACHN renal) | GI50 (IGROV1 ovarian) | GI50 (MCF7 breast) | TGI (MCF7 breast) | GI50 (RPMI-8226 leukemia) | GI50 (OVCAR-5 ovarian) | GI50 (CCRF-CEM leukemia) | GI50 (HT29 colon) | GI50 (LOX IMVI melanoma) [µM] |
| --- | --- | --- | --- | --- | --- | --- | --- | --- | --- | --- | --- | --- | --- | --- | --- | --- | --- | --- | --- | --- |
| Cc1nn(C)c(=S)n(C)c1=O | 30.1 µM | > 100 | 10.2 µM | 53.2 µM | 14.8 µM | 53.8 µM | > 100 µM | > 100 µM |  |  |  |  |  |  |  |  |  |  |  |  |
| COC(=O)c1ccccc1N=Cc1ccc(N(CCC#N)S(=O)(=O)c2ccccc2)cc1 | > 100 µM | > 100 | > 100 µM | > 100 µM | > 100 µM | > 100 µM | > 100 µM | > 100 µM |  |  |  |  |  |  |  |  |  |  |  |  |
| COC(=O)C(=O)C(C#N)c1ccc(Cl)c(Cl)c1 (stereo not drawn) | > 100 µM | > 100 | > 100 µM | > 100 µM | > 100 µM |  | > 100 µM | > 100 µM |  |  |  |  |  |  |  |  |  |  |  |  |
| COc1ccc(/C=C/C(C(=O)O)C(=O)O)cc1 | > 100 µM | 39.5 | > 100 µM | > 100 µM | > 100 µM | > 100 µM | 82.3 µM | > 100 µM |  |  |  |  |  |  |  |  |  |  |  |  |
| CN(Cc1ccccc1)C1(N(C)Cc2ccccc2)CC1 | > 100 µM | > 100 | > 100 µM | > 100 µM |  | > 100 µM | > 100 µM | > 100 µM |  |  |  |  |  |  |  |  |  |  |  |  |
| C=CCNC(=S)OCCCCCCCCCC | 30.8 µM | 26.9 | 32.7 µM | 35.7 µM | 38.9 µM | 21.8 µM | 37.4 µM | 32.5 µM |  |  |  |  |  |  |  |  |  |  |  |  |
| C=C1C(=O)O[C@H]2[C@H]1CC(=O)/C(C)=C\CC[C@@]1(C)O[C@@H]21 | 10.9 µg/mL |  | 2.38 µg/mL | 5.8 µg/mL | 1.3 µg/mL | 8.24 µg/mL | 1.4 µg/mL | 4.32 µg/mL | 4.53 µg/mL | 8.7 µg/mL | 5.32 µg/mL | 0.822 µg/mL | 2.17 µg/mL | 1.77 µg/mL | 10.1 µg/mL | 0.514 µg/mL | 4.16 µg/mL | 0.443 µg/mL | 1.29 µg/mL |  |
| COc1ccc(CCC2NCCc3cc(OC)c(OC)cc32)cc1 (stereo not drawn) | > 100 µM |  | > 100 µM |  | > 100 µM | > 100 µM | > 100 µM | > 100 µM |  |  |  |  |  |  |  |  |  |  |  |  |
| CC(=O)OC1=C2C(CC3C4CC=C5CC(OC(C)=O)CCC5(C)C4CCC23C)C2C(=O)N(Cc3ccccc3)C(=O)C2C1 (stereo not drawn) |  |  | > 100 µM | > 100 µM | 9.82 µM | > 100 µM | > 100 µM | 24 µM | 4.03 µM | > 100 µM |  | 9.65 µM | 6.85 µM | 2.71 µM | 15 µM | 2.78 µM | 50.3 µM | 3.39 µM | 3.9 µM |  |
| N#Cc1nc(Nc2ccc([N+](=O)[O-])cc2)sc1N | > 48.5 µM | 28.6 | 50.9 µM | > 100 µM | > 59.2 µM | > 100 µM | > 100 µM | > 100 µM |  |  |  |  |  |  |  |  |  |  |  |  |
| CN1c2ccccc2C(C)(C)C12CC(c1ccc(Cl)c(S(=O)(=O)N3CCCC3)c1)=NO2 (stereo not drawn) | > 100 µM |  | > 100 µM | > 100 µM |  | > 100 µM |  |  | 59 µM | > 100 µM | 0.531 µM | > 100 µM | > 100 µM | > 100 µM | > 100 µM |  | > 100 µM |  |  |  |
| COC1(OC)c2ccccc2C2(O)c3ccccc3C(=O)C12 (stereo not drawn) | > 100 µM | > 100 | > 100 µM | 67 µM | 62.5 µM | > 100 µM | 84.5 µM | > 100 µM |  |  |  |  |  |  |  |  |  |  |  |  |
| CC(C)(C)n1cc(-c2ccnc(NCCNS(=O)(=O)c3cccc4ccccc34)c2)c(-c2cccc(F)c2)n1 | 33.4 µM |  | 49 µM | 64.3 µM | 44.9 µM | 69.9 µM | > 100 µM | 23.9 µM | 4.71 µM | 54.4 µM | 12.4 µM | 18.9 µM | 18.6 µM | 16.3 µM | 59.6 µM | 6.2 µM | 23.7 µM | 8.38 µM | 5.25 µM |  |
| O=C(/C=C/c1ccc(Cl)cc1)c1ccncc1 | > 100 µM | 73.6 | > 100 µM | > 100 µM | > 100 µM | > 100 µM | > 100 µM | 44.4 µM |  |  |  |  |  |  |  |  |  |  |  |  |
| Clc1ccc(Nc2nc3ccccc3c3occc23)cc1 | 16.2 µM | 14.3 | 18.9 µM | 27.3 µM | 27.4 µM | 18.4 µM |  |  | 7 µM | 13.5 µM | 8.66 µM | 9.16 µM | 10.2 µM | 10.9 µM | > 50 µM | 11.3 µM | 9.4 µM |  |  | 5.49 |
| O=C(O/N=C1/CCCC/C1=C\c1ccccc1)c1ccc(Cl)cc1 | > 100 µM | > 100 | > 100 µM | > 100 µM | > 100 µM | > 100 µM | > 100 µM | > 100 µM |  |  |  |  |  |  |  |  |  |  |  |  |
| Cn1cnc([N+](=O)[O-])c1Sc1nnc(C(F)(F)F)n1C | 37.2 µM | 30.5 | 57.4 µM | > 100 µM | 49.9 µM | > 100 µM | 48.4 µM | > 100 µM |  |  |  |  |  |  |  |  |  |  |  |  |
| COc1cc2c3c(n(CCCNCCN4CCOCC4)c(=O)c2cc1OC)-c1cc2c(cc1C3=O)OCO2 | 0.959 µM and 4.55 µM | 3.34 | 0.658 µM and 2.62 µM | 23.5 µM and > 100 µM | 1.14 µM and 0.681 µM | 1.74 µM and 5.16 µM |  | 50 µM and > 100 µM | 1.9 µM and 1.59 µM | 9.18 µM and 4.91 µM |  |  | 6.92 µM and 2.12 µM |  |  | 0.122 µM and 0.0199 µM | 0.913 µM and 2.31 µM |  | 2.2 µM and 1.78 µM | 1.04 |
| COP1(=S)OCC2CCC[C@@H]2O1 (stereo partly drawn) | > 100 µM |  | > 100 µM | > 100 µM | > 100 µM | > 100 µM | > 100 µM | > 100 µM |  | > 100 µM |  |  |  |  |  |  |  |  |  |  |
| C=CCC(C)(C(=O)NCCC)C(=O)c1ccccc1O (stereo not drawn) | > 100 µM |  | > 100 µM | > 100 µM | > 100 µM |  | > 100 µM |  |  |  |  |  |  |  |  |  |  |  |  |  |
| C1C[OH+]CC[OH+]CC[OH+]CC[OH+]CC[OH+]CC[OH+]1.[Cl-].[Ta+5] | > 100 µM | > 100 | > 100 µM | > 100 µM | > 100 µM |  |  | > 100 µM |  |  | > 100 µM | > 100 µM | > 100 µM |  |  | > 100 µM |  |  | > 100 µM | > 100 |
| CC1=N/C(=C\c2cccc3ccccc23)C(=O)O1 | > 100 µM |  | > 100 µM | > 100 µM | > 100 µM | > 100 µM | > 100 µM | > 100 µM |  |  |  |  |  |  |  |  |  |  |  |  |
